PubChem BioAssay AID248 (DTP/NCI, 2004)
“And” between values parts separate entries of the source, which are not always exact repeats. Equal entries are not always repeated. Toxic doses and inconclusive results are not listed. No stated cut-off is given here; in the data, active means T/C of 150% or more; inactive means T/C below 125%.

System: L1210 leukemia ip in BDF1 mice, survival T/C
Test: NCI In Vivo Anticancer Drug Screen. Data for tumor model L1210 Leukemia (intraperitoneal) in B6D2F1 (BDF1) mice
Settings: endpoint: mean survival time, higher = longer survival
In short: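 Antitumor effect is assessed in tumor-bearing animals. Survival in the compound arm is compared with a vehicle-dosed control arm and expressed as their quotient.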

[1] = dose: 50.0 mg/kg/injection, schedule: Q01DX009 (ip), vehicle: Klucel (hydroxypropylcellulose) (HPC)
[2] = dose: 100.0 mg/kg/injection, schedule: Q01DX009 (ip), vehicle: Klucel (hydroxypropylcellulose) (HPC)
[3] = dose: 200.0 mg/kg/injection, schedule: Q01DX009 (ip), vehicle: Klucel (hydroxypropylcellulose) (HPC)
[4] = dose: 100.0 mg/kg/injection, schedule: Q04DX003 (ip), vehicle: Klucel (hydroxypropylcellulose) (HPC)
[5] = dose: 200.0 mg/kg/injection, schedule: Q04DX003 (ip), vehicle: Klucel (hydroxypropylcellulose) (HPC)
[6] = dose: 400.0 mg/kg/injection, schedule: Q01DX009 (ip), vehicle: Klucel (hydroxypropylcellulose) (HPC)
[7] = dose: 400.0 mg/kg/injection, schedule: Q04DX003 (ip), vehicle: Klucel (hydroxypropylcellulose) (HPC)
[8] = dose: 50.0 mg/kg/injection, schedule: Q01DX009 (ip), vehicle: saline with Tween-80
[9] = dose: 100.0 mg/kg/injection, schedule: Q04DX003 (ip), vehicle: saline with Tween-80
[10] = dose: 200.0 mg/kg/injection, schedule: Q01DX009 (ip), vehicle: saline with Tween-80
[11] = dose: 200.0 mg/kg/injection, schedule: Q04DX003 (ip), vehicle: saline with Tween-80
[12] = dose: 400.0 mg/kg/injection, schedule: Q01DX009 (ip), vehicle: saline with Tween-80
[13] = dose: 400.0 mg/kg/injection, schedule: Q04DX003 (ip), vehicle: saline with Tween-80

Measured: T/C

CC1(C#N)CC(C)(C)C(=O)N1 (configuration not stated)
inactive: dose: 75.0 mg/kg/injection, schedule: Q01DX001 (ip), vehicle: saline 102 % of control | dose: 150.0 mg/kg/injection, schedule: Q01DX001 (ip), vehicle: saline 102 % of control | dose: 300.0 mg/kg/injection, schedule: Q01DX001 (ip), vehicle: saline 108 % of control

OC/C(=C/c1ccccc1)c1ccccc1
inactive: [1] 98 % of control | dose: 75.0 mg/kg/injection, schedule: Q04DX003 (ip), vehicle: Klucel (hydroxypropylcellulose) (HPC) 100 % of control | [2] 91 % of control | dose: 150.0 mg/kg/injection, schedule: Q04DX003 (ip), vehicle: Klucel (hydroxypropylcellulose) (HPC) 98 % of control | [3] 93 % of control | dose: 300.0 mg/kg/injection, schedule: Q04DX003 (ip), vehicle: Klucel (hydroxypropylcellulose) (HPC) 96 % of control

CCC(CO)NC(=O)C1C=C2c3cccc4c3c(cn4C)CC2N(C)C1 (configuration not stated)
inactive: dose: 25.0 mg/kg/injection, schedule: Q01DX009 (ip), vehicle: Klucel (hydroxypropylcellulose) (HPC) 94 % of control and 101 % of control | dose: 25.0 mg/kg/injection, schedule: Q04DX003 (ip), vehicle: Klucel (hydroxypropylcellulose) (HPC) 97 % of control | [1] 94 % of control and 101 % of control | dose: 50.0 mg/kg/injection, schedule: Q04DX003 (ip), vehicle: Klucel (hydroxypropylcellulose) (HPC) 103 % of control | [2] 111 % of control and 91 % of control | [4] 108 % of control | [3] 120 % of control and 121 % of control | [5] 109 % of control | [6] 120 % of control | [7] 104 % of control

CCOC(=O)CCCN(c1[nH]c(C)c(C)c1C#N)S(=O)(=O)c1ccc(C)cc1
inactive: [8] 93 % of control | dose: 50.0 mg/kg/injection, schedule: Q04DX003 (ip), vehicle: saline with Tween-80 93 % of control | dose: 100.0 mg/kg/injection, schedule: Q01DX009 (ip), vehicle: saline with Tween-80 96 % of control | [9] 90 % of control | [10] 90 % of control | [11] 101 % of control | [12] 100 % of control | [13] 95 % of control

CC1=CC(C)(C)NC(=S)N1c1ccccc1
inactive: [4] 103 % of control | [3] 86 % of control | [5] 103 % of control | [6] 87 % of control | [7] 101 % of control

O=C(/C=C/c1ccccc1)NC(=S)Nc1ccccc1F
inactive: dose: 12.5 mg/kg/injection, schedule: Q01DX009 (ip), vehicle: saline with Tween-80 106 % of control and 88 % of control | dose: 25.0 mg/kg/injection, schedule: Q01DX009 (ip), vehicle: saline with Tween-80 95 % of control and 107 % of control | [8] 97 % of control | dose: 100.0 mg/kg/injection, schedule: Q01DX001 (ip), vehicle: saline with Tween-80 92 % of control | dose: 100.0 mg/kg/injection, schedule: Q04DX002 (ip), vehicle: alcohol 95 % of control and 90 % of control | [9] 94 % of control | dose: 200.0 mg/kg/injection, schedule: Q01DX001 (ip), vehicle: saline with Tween-80 90 % of control | [10] 89 % of control | dose: 200.0 mg/kg/injection, schedule: Q04DX002 (ip), vehicle: alcohol 101 % of control | [11] 87 % of control | dose: 400.0 mg/kg/injection, schedule: Q01DX001 (ip), vehicle: saline with Tween-80 87 % of control | [12] 86 % of control | dose: 400.0 mg/kg/injection, schedule: Q04DX002 (ip), vehicle: alcohol 102 % of control | [13] 86 % of control

N#CC(Cl)(Cl)C(N)=O
inactive: dose: 12.5 mg/kg/injection, schedule: Q04DX002 (ip), vehicle: saline 88 % of control

c1ccc(C2=NC(c3ccccc3)N3CC23c2ccccc2)cc1 (configuration not stated)
inactive: dose: 100.0 mg/kg/injection, schedule: Q01DX001 (ip), vehicle: Klucel (hydroxypropylcellulose) (HPC) 97 % of control | dose: 200.0 mg/kg/injection, schedule: Q01DX001 (ip), vehicle: Klucel (hydroxypropylcellulose) (HPC) 94 % of control

CN1CCC(O)(C#N)CC1
inactive: dose: 7.5 mg/kg/injection, schedule: Q01DX001 (ip), vehicle: saline 101 % of control | dose: 15.0 mg/kg/injection, schedule: Q01DX001 (ip), vehicle: saline 106 % of control

O=C(/C=C/c1ccco1)c1ccc(Cl)cc1
inactive: dose: 100.0 mg/kg/injection, schedule: Q01DX009 (ip), vehicle: saline sonified 91 % of control | dose: 200.0 mg/kg/injection, schedule: Q01DX009 (ip), vehicle: saline sonified 104 % of control | dose: 400.0 mg/kg/injection, schedule: Q01DX009 (ip), vehicle: saline sonified 94 % of control

O=C(O)c1ccccc1C(=O)NCc1ccco1
inactive: dose: 50.0 mg/kg/injection, schedule: Q01DX001 (ip), vehicle: other 94 % of control | dose: 100.0 mg/kg/injection, schedule: Q01DX001 (ip), vehicle: other 105 % of control | dose: 200.0 mg/kg/injection, schedule: Q01DX001 (ip), vehicle: other 105 % of control | dose: 400.0 mg/kg/injection, schedule: Q01DX001 (ip), vehicle: other 100 % of control

CC1OC(=O)N(CCc2ccncc2)C1=O (configuration not stated)
inactive: dose: 100.0 mg/kg/injection, schedule: Q04DX002 (ip), vehicle: saline 93 % of control | dose: 200.0 mg/kg/injection, schedule: Q04DX002 (ip), vehicle: saline 93 % of control | dose: 400.0 mg/kg/injection, schedule: Q04DX002 (ip), vehicle: saline 97 % of control

c1ccc2c(N=NSc3ncnc4nc[nH]c34)c3ccccc3nc2c1
inactive: dose: 5.0 mg/kg/injection, schedule: Q01DX001 (ip), vehicle: carboxymethylcellulose (CMC) 105 % of control | dose: 10.0 mg/kg/injection, schedule: Q01DX001 (ip), vehicle: carboxymethylcellulose (CMC) 115 % of control | dose: 20.0 mg/kg/injection, schedule: Q01DX001 (ip), vehicle: carboxymethylcellulose (CMC) 98 % of control | dose: 40.0 mg/kg/injection, schedule: Q01DX001 (ip), vehicle: carboxymethylcellulose (CMC) 107 % of control

C/C=C/C=C/C=N/N=C(N)N
inactive: dose: 15.0 mg/kg/injection, schedule: Q01DX Z (ip), vehicle: carboxymethylcellulose (CMC) 97 % of control | dose: 30.0 mg/kg/injection, schedule: Q01DX Z (oral), vehicle: carboxymethylcellulose (CMC) 109 % of control | dose: 60.0 mg/kg/injection, schedule: Q01DX Z (oral), vehicle: carboxymethylcellulose (CMC) 103 % of control | dose: 120.0 mg/kg/injection, schedule: Q01DX Z (oral), vehicle: carboxymethylcellulose (CMC) 103 % of control and 112 % of control | dose: 240.0 mg/kg/injection, schedule: Q01DX Z (oral), vehicle: carboxymethylcellulose (CMC) 102 % of control and 107 % of control

C=CC(CO)N1CC1 (configuration not stated)
inactive: dose: 25.0 mg/kg/injection, schedule: Q01DX001 (ip), vehicle: carboxymethylcellulose (CMC) 101 % of control | dose: 50.0 mg/kg/injection, schedule: Q01DX001 (ip), vehicle: carboxymethylcellulose (CMC) 103 % of control

Cc1ccc(NC(=O)OCCOc2ccc([N+](=O)[O-])cc2)c([N+](=O)[O-])c1
inactive: [1] 102 % of control | [2] 91 % of control | [4] 97 % of control | [3] 91 % of control | [5] 102 % of control | [7] 95 % of control

NCCCCC(N)C(=O)NCCCNCCCCNCCCNC(=O)C(N)CCCCN (configuration not stated)
inactive: dose: 3.0 mg/kg/injection, schedule: Q01DX Z (ip), vehicle: saline 104 % of control | dose: 10.0 mg/kg/injection, schedule: Q01DX Z (ip), vehicle: saline 94 % of control | dose: 30.0 mg/kg/injection, schedule: Q01DX Z (ip), vehicle: saline 93 % of control | dose: 100.0 mg/kg/injection, schedule: Q01DX Z (ip), vehicle: saline 106 % of control
